Measurements taken from US12233161B1, “Lipids and lipid nanoparticle formulations” (LONGUIDE BIOPHARMA CORPORATION, priority 2024, dated 2025).

Columns and labels:
[1] = Potential characterization of nucleic acid lipid nanoparticle preparations; format: physicochemical
Procedure, shortened: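 Nanoparticles (about 0.04 mg/mL mRNA) were diluted in ultrapure water for Malvern ZEN3700 measurement: 20 μL into 780 μL for potential alone, or 27.5 μL into 200 μL for DLS particle size followed by addition of 600 μL water for potential.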

mice [2] = experiment: In vivo delivery of FLuc-mRNA lipid nanoparticles in mice, in vivo imaging (IVIS); details: for IVIS: Fluc-mRNA
Procedure, shortened: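 Mice (n=3) received about 75 μL FLuc-mRNA LNP per mouse intramuscularly (rectus femoris), intravenously (tail vein), intraperitoneally or subcutaneously (back). After injection, D-luciferin (200 μL, 15 mg/mL) was given i.p. 10-15 min before IVIS imaging.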

[3] = Particle size and PDI of nucleic acid lipid nanoparticle preparations by dynamic light scattering; format: physicochemical
Procedure, shortened: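 LNP solution (about 0.04 mg/mL mRNA before dilution) was diluted in ultrapure water and mixed by gentle pipetting. Particle size and PDI were then measured by dynamic light scattering.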

mice [4] = experiment: In vivo delivery of FLuc-circ-RNA lipid nanoparticles in mice; details: Fluc-circ-RNA LNP; for % of organ targeting: IV
Description: Lipid nanoparticles loaded with nucleic acid drugs were prepared according to step 2, replacing FLuc-mRNA with FLuc-circ-RNA (Hongene Biotech Corporation, Shanghai). After formulation, the nanoparticles were administered via intramuscular injection (into the quadriceps femoris muscle of mice), intravenous injection (into the tail vein of mice), intraperitoneal injection, or subcutaneous injection (subcutaneously on the back). Approximately 75 μL was injected per mouse, with a total of 3 mice per group. In vivo imaging (PerkinElmer, IVIS Lumina III) was performed after a certain period of time. Ten to fifteen minutes before imaging, 200 μL of a 15 mg/mL D-Luciferin working solution was injected intraperitoneally, followed by imaging analysis using the in vivo imaging system.

[5] = Fluc-circ-RNA LNP, preparation given IV
[6] = IV, liver, DMG-PEG2000:DOPE:Chol:compound 1.40:11.15:38.95:48.50, N/P 30
[7] = IV, liver, DMG-PEG2000:DSPC:Chol:compound 1.00:11.50:27.50:60.00, N/P 30
[8] = IV, lung, DMG-PEG2000:DOPE:Chol:compound 1.40:11.15:38.95:48.50, N/P 30
[9] = IV, lung, DMG-PEG2000:DSPC:Chol:compound 1.00:11.50:27.50:60.00, N/P 30
[10] = IV, spleen, DMG-PEG2000:DOPE:Chol:compound 1.40:11.15:38.95:48.50, N/P 30
[11] = IV, spleen, DMG-PEG2000:DSPC:Chol:compound 1.00:11.50:27.50:60.00, N/P 30
[12] = DMG-PEG2000:DOPE:Chol:compound 1.40:11.15:38.95:48.50, N/P 30
[13] = DMG-PEG2000:DSPC:Chol:compound 1.00:11.50:27.50:60.00, N/P 30
[14] = DMG-PEG2000:DSPC:Chol:compound 1.40:11.15:38.95:48.50, N/P 30
[15] = IV, body, DMG-PEG2000:DSPC:Chol:compound 1.00:10.00:33.00:56.00, N/P 42
[16] = IV, liver, DMG-PEG2000:DSPC:Chol:compound 1.00:10.00:33.00:56.00, N/P 42
[17] = IV, liver, DMG-PEG2000:DSPC:Chol:compound 2.50:11.50:56.00:30.00, N/P 42
[18] = IV, lung, DMG-PEG2000:DSPC:Chol:compound 1.00:10.00:33.00:56.00, N/P 42
[19] = IV, lung, DMG-PEG2000:DSPC:Chol:compound 2.50:11.50:56.00:30.00, N/P 42
[20] = IV, spleen, DMG-PEG2000:DSPC:Chol:compound 1.00:10.00:33.00:56.00, N/P 42
[21] = IV, spleen, DMG-PEG2000:DSPC:Chol:compound 2.50:11.50:56.00:30.00, N/P 42
[22] = DMG-PEG2000:DSPC:Chol:compound 1.00:10.00:33.00:56.00, N/P 42
[23] = DMG-PEG2000:DSPC:Chol:compound 2.50:11.50:56.00:30.00, N/P 42
[24] = Fluc-circ-RNA LNP, preparation given IM
[25] = N/P 30, formulation cells blank (line above: DMG-PEG2000:DSPC:Chol:compound 1.00:10.00:33.00:56.00)

With `[2H]C([2H])([2H])[N+](CCCN(CC(O)C(=O)NCCCCCCCCCCCC)CC(O)C(=O)NCCCCCCCCCCCC)(CCCN(CC(O)C(=O)NCCCCCCCCCCCC)CC(O)C(=O)NCCCCCCCCCCCC)C([2H])([2H])[2H]` (stereo not shown) [Compound L0346] the “Zeta potential (mV)” value [1, 5] was 14.23 mV, the IVIS (mice [2]; IM, DMG-PEG2000:DOPE:Chol:compound 1.40:11.15:38.95:48.50, N/P 30) was 3.49E+05 and the IVIS (mice [2]; IV, body, DMG-PEG2000:DOPE:Chol:compound 1.40:11.15:38.95:48.50, N/P 30) was 1.95E+08. For the same compound, the IVIS (mice [2]; IV, body, DMG-PEG2000:DSPC:Chol:compound 1.00:11.50:27.50:60.00, N/P 30) was 3.93E+08, the “% of organ targeting” value (mice [2]; [6]) was 0.84% and the IVIS (mice [2]; [6]) was 2.65E+06. For the same compound, the “% of organ targeting” value (mice [2]; [7]) was 0.56%, the IVIS (mice [2]; [7]) was 7.32E+06 and the “% of organ targeting” value (mice [2]; [8]) was 98.01%. The IVIS (mice [2]; [8]) was 3.10E+08, the “% of organ targeting” value (mice [2]; [9]) was 98.90% and the IVIS (mice [2]; [9]) was 1.28E+09. The “% of organ targeting” value (mice [2]; [10]) was 1.16%, the IVIS (mice [2]; [10]) was 3.66E+06 and the “% of organ targeting” value (mice [2]; [11]) was 0.54%. For the same compound, the IVIS (mice [2]; [11]) was 6.96E+06, the PDI [3, 12] was 0.38 and the “Particle size (nm)” value [3, 12] was 78.75 nm. The PDI [3, 13] was 0.23, the “Particle size (nm)” value [3, 13] was 157.00 nm and the PDI [3, 5] was 0.24. For the same compound, the “Particle size (nm)” value [3, 5] was 161.2 nm, the “% of organ targeting” value (mice [4]; liver) was 0.87% and the “% of organ targeting” value (mice [4]; lung) was 98.45%. The “% of organ targeting” value (mice [4]; spleen) was 0.69%.

With `CCCCCCCCCCOC(=O)C(O)CN(CCCN(C)CCCN(CC(O)C(=O)OCCCCCCCCCC)CC(O)C(=O)OCCCCCCCCCC)CC(O)C(=O)OCCCCCCCCCC` (stereo not shown) [Compound L0313] the “Zeta potential (mV)” value [1, 14] was 13.57 mV, the “Zeta potential (mV)” value [1, 5] was 9.98 mV and the IVIS (mice [2]; IM, DMG-PEG2000:DSPC:Chol:compound 1.40:11.15:38.95:48.50, N/P 30) was 7.43E+05. The IVIS (mice [2]; [15]) was 5.88E+07, the IVIS (mice [2]; IV, body, DMG-PEG2000:DSPC:Chol:compound 2.50:11.50:56.00:30.00, N/P 42) was 5.20E+07 and the “% of organ targeting” value (mice [2]; [16]) was 2.04%. For the same compound, the IVIS (mice [2]; [16]) was 3.78E+06, the “% of organ targeting” value (mice [2]; [17]) was 6.90% and the IVIS (mice [2]; [17]) was 8.68E+06. For the same compound, the “% of organ targeting” value (mice [2]; [18]) was 62.84%, the IVIS (mice [2]; [18]) was 1.17E+08 and the “% of organ targeting” value (mice [2]; [19]) was 1.10%. For the same compound, the IVIS (mice [2]; [19]) was 1.38E+06, the “% of organ targeting” value (mice [2]; [20]) was 35.12% and the IVIS (mice [2]; [20]) was 6.52E+07. For the same compound, the “% of organ targeting” value (mice [2]; [21]) was 92.00%, the IVIS (mice [2]; [21]) was 1.16E+08 and the PDI [3, 22] was 0.17. The “Particle size (nm)” value [3, 22] was 75.31 nm, the PDI [3, 14] was 0.18 and the “Particle size (nm)” value [3, 14] was 111.20 nm. For the same compound, the PDI [3, 23] was 0.17, the “Particle size (nm)” value [3, 23] was 82.60 nm and the PDI [3, 5] was 0.2. The “Particle size (nm)” value [3, 5] was 115.97 nm, the “% of organ targeting” value (mice [4]; liver) was 3.39% and the “% of organ targeting” value (mice [4]; lung) was 20.55%. For the same compound, the “% of organ targeting” value (mice [4]; spleen) was 76.06%.

For `CCCCCCC(CCCCCC)C(=O)OCCCCCCOC(=O)C(O)CN(CCCN(C)CCCN(CC(O)C(=O)OCCCCCCOC(=O)C(CCCCCC)CCCCCC)CC(O)C(=O)OCCCCCCOC(=O)C(CCCCCC)CCCCCC)CC(O)C(=O)OCCCCCCOC(=O)C(CCCCCC)CCCCCC` (stereo not shown) [Compound L0293], the “Zeta potential (mV)” value [1, 24] was 11.37 mV, the “Zeta potential (mV)” value [1, 25] was 9.98 mV and the IVIS (mice [2]; IM, N/P 30, formulation cells blank (line above: DMG-PEG2000:DSPC:Chol:compound 1.00:10.00:33.00:56.00)) was 3.61E+07. For the same compound, the IVIS (mice [2]; [15]) was 3.11E+08, the “% of organ targeting” value (mice [2]; [16]) was 18.15% and the IVIS (mice [2]; [16]) was 5.63E+07. For the same compound, the “% of organ targeting” value (mice [2]; [18]) was 3.34%, the IVIS (mice [2]; [18]) was 1.03E+07 and the “% of organ targeting” value (mice [2]; [20]) was 78.51%. For the same compound, the IVIS (mice [2]; [20]) was 2.43E+08, the PDI [3, 22] was 0.10 and the “Particle size (nm)” value [3, 22] was 108.93 nm. For the same compound, the PDI [3, 24] was 0.15, the “Particle size (nm)” value [3, 24] was 106.57 nm and the PDI [3, 25] was 0.10. For the same compound, the “Particle size (nm)” value [3, 25] was 89.30 nm and the IVIS (mice [4]; IM, organ not given) was 1.02E+08.
